According to PubChem BioAssay AID652 (University of Pittsburgh Molecular Library Screening Center, 2007):

Each compound was assayed against Gag-Pol polyprotein (Human immunodeficiency virus type 1 group M subtype B (isolate HXB2)) (UniProt P04585) (assay: HIV-1 RT RNase H inhibitor potency, dose response, biochemical, probe assessment (AID 652)). Settings: HIV-1 RT RNase H enzymatic assay, inhibition, at 50 µM, stronger effect = higher value.
In the case of `Cc1ccc(NC(=O)CSc2nnc(-c3ccc(S(=O)(=O)N4CCCC4)cc3)o2)cc1C`, the inhibition is reported as 88.6%. `O=C(CCSCCC(=O)NCc1ccco1)NCc1ccco1` showed an inhibition of 98.4%. `Cc1ccc(-n2c(N)c(C(N)=O)sc2=S)cc1` was tested, and the inhibition was 83.3%. `Nc1c(C(=O)NCc2cccnc2)sc(=S)n1-c1ccccc1` showed an inhibition of 73.5%. Work on `CCN(Cc1ccccc1)S(=O)(=O)c1ccc(C(=O)Nc2nnc(-c3ccccc3OC)o2)cc1` yielded an inhibition of 95.8%. `O=C(CCCn1c(SCC(=O)c2ccc(O)c(O)c2)nc2ccccc2c1=O)NCC1CCCO1` (stereo unspecified) showed an inhibition of 99.4%. Compound `COc1ccccc1N=c1oc2c(OC)cccc2cc1C(=O)NCc1ccco1` has an inhibition of 94.1%. Work on `COC(=O)c1ccc2c(c1)N(Cc1nc(-c3ccc(Cl)cc3)oc1C)C(=O)C1CCCN21` (stereo unspecified) yielded an inhibition of 78.9%. In the case of `CC(Cc1ccc(O)c(O)c1)C(C)Cc1ccc(O)c(O)c1` (stereo unspecified), the inhibition is reported as 99%. `O=C1c2sc3nc4ccccc4n3c2C(=O)N1c1ccccc1Cl` was tested, and the inhibition was 98.9%. `COc1ccc(C2c3c(oc4ccc(Cl)cc4c3=O)C(=O)N2Cc2ccco2)cc1OC` (stereo unspecified) showed an inhibition of 95.9%. In the case of `CN(C)c1ccc(N=Cc2c(O)n(CCC3=CCCCC3)c(=O)[nH]c2=O)cc1`, the inhibition is reported as 80.1%. In the case of `COc1ccc(OC)c(Nc2nc(-c3ccc(O)c(O)c3)cs2)c1`, the inhibition is reported as 97.8%. For `O=C(c1ccccc1F)N1CCN(S(=O)(=O)c2ccc(S(=O)(=O)N3CCCCC3)cc2)CC1`, the inhibition was 95.5%. In the case of `Cc1cc(C)c(C#N)c(=N)o1`, the inhibition is reported as 83%. With `CCOC(=O)c1sc(NC(=O)CSc2n[nH]c(-c3ccccc3)n2)c(C#N)c1C` the inhibition was 101%. Compound `Cc1cccc(-n2c(N)c(C(=O)N3CCN(C)CC3)sc2=S)c1` has an inhibition of 41.7%. `Cc1cccc(-c2nsc(SCC(=O)Nc3nccs3)n2)c1` was tested, and the inhibition was 97.3%. In the case of `C/C=C/CSc1nc2c(c(=O)[nH]c(=O)n2C)n1Cc1ccc(C)cc1`, the inhibition is reported as 101%. In the case of `Cc1ccnc(-n2sc3ccccc3c2=O)n1`, the inhibition is reported as 96.7%. For `O=C(COc1ccc(Br)cc1)Nc1ccc(-c2nnc(-c3ccco3)o2)cc1`, the inhibition was 95.1%. Work on `Cc1cc(C)c2oc(-c3ccc(Cl)c(NC(=O)c4ccc(C#N)cc4F)c3)nc2c1` yielded an inhibition of 91%. In the case of `COc1cc(OC)c(C2CC(=O)N3CN(C)CSC3=C2C#N)cc1OC` (stereo unspecified), the inhibition is reported as 76.1%. `Cc1cccc(N2CCN(C(=O)Cn3sc4nc(C)cc(C)c4c3=O)CC2C)c1` (stereo unspecified) gave an inhibition of 86%. `Cn1ccnc1P(=S)(c1nccn1C)N1CCOCC1` was tested, and the inhibition was 60%. In the case of `Cc1sc(NC(=O)c2oc3ccccc3c2C)c(C#N)c1C`, the inhibition is reported as 90.3%. `COC(=O)C1=C(C)N=c2s/c(=C3\C(=O)Nc4ccccc43)c(=O)n2C1c1ccccc1` (stereo unspecified) showed an inhibition of 85.1%. Work on `Cc1cccc(NC(=O)Cn2c(C)c(C#N)c3ccccc32)c1C` yielded an inhibition of 89%. `Fc1ccccc1CSc1nc2ncccc2[nH]1` was tested, and the inhibition was 57.7%. In the case of `CCC(C)c1ccc2oc(-c3ccc(NC(=O)c4ncn[nH]4)cc3)nc2c1` (stereo unspecified), the inhibition is reported as 94.2%. Work on `COc1ccc(N2CSC3=C(C#N)C(c4ccc(OC)c(OC)c4)CC(=O)N3C2)c(OC)c1` (stereo unspecified) yielded an inhibition of 79.7%. In the case of `O=C(CSc1nc2c([nH]c3ccccc32)c(=O)n1-c1cccc(Cl)c1)N1CCOCC1`, the inhibition is reported as 82.5%. For `O=C(CSc1nnnn1-c1ccccc1)Nc1nsc(-c2ccc(Cl)cc2)n1`, the inhibition was 48.8%. Compound `CCc1ccccc1N1CSC2=C(C#N)C(c3ccccc3F)CC(=O)N2C1` (stereo unspecified) has an inhibition of 98.5%. With `C=CCSc1nc2c(cnn2-c2ccc(C)c(C)c2)c(=O)[nH]1` the inhibition was 88.6%. `CC1CCN(S(=O)(=O)c2ccc(NC(=O)Cn3nnc(-c4ccccc4)n3)cc2)CC1` was tested, and the inhibition was 61.5%. Compound `O=c1ccc2cc3c([nH]c4ccc(Br)cc43)oc-2c1O` has an inhibition of 88.5%. `CCC1CCCCN1S(=O)(=O)c1ccc(S(=O)(=O)N2CCN(S(=O)(=O)CC)CC2)cc1` (stereo unspecified) showed an inhibition of 93%. For `COc1ccc(OC)c(/C=N/c2oc(-c3ccco3)c(-c3ccco3)c2C#N)c1`, the inhibition was 89.5%. For `COc1cccc(OC)c1-c1nn2c(-c3cc(-c4ccccc4)n[nH]3)nnc2s1`, the inhibition was 63.5%. `CCOc1cc(C2CC(=O)N3CN(C4CCCCC4)CSC3=C2C#N)ccc1O` (stereo unspecified) showed an inhibition of 85.6%. Work on `O=C(NC(=O)c1ccc(Cl)cc1)Nc1cc(N2CCCCC2)ncn1` yielded an inhibition of 97.4%. `O=C1CCCC(O)=C1C(C#Cc1ccccc1)C1=C(O)CCCC1=O` gave an inhibition of 90.9%. `Nc1c(C(=O)N2CCCCC2)sc(=S)n1-c1ccccc1` was tested, and the inhibition was 83.2%. Work on `Cc1cc(C)n2c(=S)[nH]nc2n1` yielded an inhibition of 71.1%. `Clc1ccccc1-c1nn2c(-c3ccncc3)nnc2s1` was tested, and the inhibition was 79.3%. With `Cc1noc(C)c1CSc1nc2cc(S(=O)(=O)N3CCOCC3)ccc2o1` the inhibition was 88.3%. In the case of `CCCSc1nc2c(cnn2-c2ccc(Cl)cc2)c(=O)[nH]1`, the inhibition is reported as 92.8%. Compound `c1ccc(N2CCN(c3nc4cc5c(cc4s3)OCO5)CC2)cc1` has an inhibition of 97.6%. Work on `CC(C)c1ccc2oc(-c3ccc(NC(=O)c4ncn[nH]4)cc3)nc2c1` yielded an inhibition of 92.7%. With `COc1ccc(C2C(C(C)=O)=C(C)N=c3s/c(=C/c4ccc5c(c4)OCO5)c(=O)n32)cc1` (stereo unspecified) the inhibition was 82.2%. For `Cc1ccc(-c2cc(C(F)F)n3ncc(C(=O)NCc4ccco4)c3n2)cc1`, the inhibition was 93%. In the case of `COc1ccc(CCNC(=O)c2c(O)c3cccc4c3n(c2=O)CC4)cc1`, the inhibition is reported as 67.1%. In the case of `Cc1ccc(Cn2c(SCC(C)C)nc3c2c(=O)[nH]c(=O)n3C)cc1`, the inhibition is reported as 91.8%. `Cc1sc2nc(SCC(=O)NCc3ccco3)n(CCc3ccccc3)c(=O)c2c1C` was tested, and the inhibition was 82.4%. In the case of `COc1cccc(-c2nnc(NC(=O)c3ccc(S(=O)(=O)N(CC(C)C)CC(C)C)cc3)o2)c1`, the inhibition is reported as 84.4%. `O=c1c2ccccc2[se]n1-c1ccccc1` showed an inhibition of 85.5%. In the case of `COc1cc(OC)c(C2CC(=O)N3CN(c4ccccc4C)CSC3=C2C#N)cc1OC` (stereo unspecified), the inhibition is reported as 97.9%. `O=C1CC(c2ccco2)Cc2nc(Nc3nc(-c4ccccc4)c4ccccc4n3)ncc21` (stereo unspecified) was tested, and the inhibition was 53.7%. Work on `COc1ccc(S(=O)(=O)Nc2ccc(O)c3ccccc23)cc1` yielded an inhibition of 67.3%. Compound `O=C(Nc1nc(-c2ccncc2)cs1)c1ccco1` has an inhibition of 87.1%.
